Legend:
[1] = test system: Novel coronavirus SARS-COV-2 Wk-521 strains (Wuhan strain); assay type: cell-based; details: for antiviral effect compared with the preparation / other alkaloids: Wuhan strain, VeroE6/TMPRSS2 cells
[2] = test system: VeroE6/TMPRSS2 cells; assay type: cell-based; details: 24 hours, FIG. 2A-2E
Method: VeroE6/TMPRSS2 cells were cultured at 37° C. in 5% of a CO2 atmosphere by using Dulbecco's Modified Eagle's Medium (DMEM, Life Technologies Corporation) added with 10% of a fetal bovine serum (FBS, Cell Culture Bioscience Corporation), 100 units/ml of penicillin, 100 μg/ml of streptomycin, 10 mM of HEPES (pH7.4) and 1 mg/ml of G418 disulfate (Nacalai Tesque, Inc.). In infection tests, it was changed to 2% of FBS and no G418 disulfate was added.
The Stephania cepharantha-derived alkaloid-containing preparation, Cepharanthine, Isotetrandrine, Cycleanine, or Berbamine were added to the medium of the VeroE6/TMPRSS2 cells and, and the cells cultured for 24 hours were fixed with 4% of paraformaldehyde, and nucleuses were stained with DAPI. Thereafter, the number of viable cells were measured using an ImageXpress Micro Confocal (Molecular Device, LLC).

[3] = test system: human coronavirus OC43 strain; details: early stage of infection in cells, MRC-5 human lung cells; cited from earlier work
[4] = test system: SARS coronavirus; details: cited from earlier work

## COc1cc2c3cc1Oc1c(OC)c(OC)cc4c1[C@@H](Cc1ccc(O)c(c1)Oc1ccc(cc1)C[C@@H]3N(C)CC2)N(C)CC4 [Berbamine]
[1]
  antiviral effect (number of viral RNA with increasing addition concentration): showed antiviral effects
  antiviral effect compared with the preparation / other alkaloids: weak antiviral effect
[2]
  cytotoxic effect (number of viable cells with increasing addition concentration): showed cytotoxic effects

## COc1ccc2cc1Oc1ccc(cc1)C[C@H]1c3c(cc4c(c3Oc3cc5c(cc3OC)CCN(C)[C@@H]5C2)OCO4)CCN1C [Cepharanthine]
[3]
  antiviral effects on the human coronavirus OC43 strain: have antiviral effects
[1]
  antiviral effect (number of viral RNA with increasing addition concentration): showed antiviral effects
  antiviral effect compared with the preparation / other alkaloids: comparable to the Stephania cepharantha-derived alkaloid-containing preparation
[4]
  antiviral effect against the SARS coronavirus: has an antiviral effect
[2]
  cytotoxic effect (number of viable cells with increasing addition concentration): showed cytotoxic effects

## COc1cc2c3c(c1OC)Oc1ccc(cc1)C[C@@H]1c4c(cc(OC)c(OC)c4Oc4ccc(cc4)C[C@H]3N(C)CC2)CCN1C [Cycleanine]
[1]
  antiviral effect (number of viral RNA with increasing addition concentration): showed antiviral effects
  antiviral effect compared with the preparation / other alkaloids: comparable to the Stephania cepharantha-derived alkaloid-containing preparation
[2]
  cytotoxic effect (number of viable cells with increasing addition concentration): showed cytotoxic effects

## COc1ccc2cc1Oc1ccc(cc1)C[C@H]1c3cc(c(OC)cc3CCN1C)Oc1c(OC)c(OC)cc3c1[C@@H](C2)N(C)CC3 [Isotetrandrine]
[1]
  antiviral effect (number of viral RNA with increasing addition concentration): showed antiviral effects
  antiviral effect compared with the preparation / other alkaloids: comparable to the Stephania cepharantha-derived alkaloid-containing preparation
[2]
  cytotoxic effect (number of viable cells with increasing addition concentration): showed cytotoxic effects
